Molecules are shown by their SMILES. ≈ marks a conversion by molar mass, not a printed value.

Common to all, as to assay type: in vivo
In experiment [1] the test system is bean aphid (Aphis fabae Scop.). The experiment in a line: Bean Aphid Foliage Spray Test. To be noted: foliar, 24 hour holding period, read-out: Insect LD50, Aphid. The procedure:
(§1) Suspensions of the test compouns were prepared by dissolving one gram of compound in 50 milliliters of acetone in which had been dissolved 0.1 gram (10 percent of the weight of compound) of an alkylphenoxy polyethoxyethanol surfactant, as an emulsifying or dispersing agent. The resulting solution was mixed into 150 milliliters of water to give roughly 200 milliliters of a suspension containing the compound in finely divided form. The thus-prepared stock suspension contained 0.5 percent by weight of compound. The test concentrations in parts per million by weight employed in the tests described hereinbelow were obtained by appropriate dilutions of the stock suspension with water. The test procedures were as follows:
Bean Aphid Foliage Spray Test
Adults and nymphal stages of the bean aphid (Aphis fabae Scop.) reared on potted dwarf nasturtium plants at 65°-70° F. and 50-70 per cent relative humidity, constituted the test insects. For testing purposes, the number of aphids per pot was standardized to 100-150 by trimming plants containing excess aphids.
The test compounds were formulated by diluting the stock suspension with water to give a suspension containing 500 parts of test compound per million parts of final formulation.
The potted plants (one pot per compound tested) infested with 100-150 aphids, were placed on a revolving turntable and sprayed with 100 -110 milliliters of test compound formulation by use of a DeVilbiss spray gun set at 40 psig. air pressure. This application, which lasted 25 seconds, was sufficient to wet the plants to run-off. As a control, 100-110 milliliters of a water-acetone-emulsifier solution containing no test compound were also sprayed on infested plants. After spraying, the pots were placed on their sides on a sheet of white standard mimeograph paper which had peen previously ruled to facilitate counting. Temperature and humidity in the test room during the 24 hour holding period were 65°-70° F. and 50-70 per cent, respectively. Aphids which fell onto the paper and were unable to remain standing after being uprighted were considered dead. Aphids remaining on the plants were observed closely for movement and those which were unable to move the length of the body upon stimulation by prodding were considered dead. Per cent mortality was recorded for various concentration levels.

Experiment [2] relates to southern armyworm (Spodoptera eridania, (Cram.)). As to the kind of experiment: Southern Armyworm Leaf Spray Bait Test. As to conditions: for LC50: Spodoptera eridania, 72 h, leaf spray bait, 3 days, read-out: Insect LD50, Armyworm; for (b) relative efficacy of derivative vs parent compound, Armyworm: bait, formula of footnote b is drawing 8. The procedure:
as §1
Southern Armyworm Leaf Spray Bait Test
Larvae of the southern armyworm (Spodoptera eridania, (Cram.)), reared on Tendergreen bean plants at a temperature of 80°±5° F. and a relative humidity of 50±5 per cent, constituted the test insects.
The test compounds were formulated by diluting the stock suspension with water to give a suspension containing 500 parts of test compound per million parts of final formulation. Potted Tendergreen bean plants of standard height and age were placed on a revolving turntable and sprayed with 100-110 milliliters of test compound formulation by use of a DeVilbiss spray gun set at 10 psig air pressure. This application, which lasted 25 seconds, was sufficient to wet plants to run-off. As a control, 100-110 milliliters of a water-acetone-emulsifier solution containing no test compound were also sprayed on infested plants. When dry, the paired leaves were separated and each one was placed in a 9 centimeter Petri dish lined with moistened filter paper. Five randomly selected larvae were introduced into each dish and the dishes were closed. The closed dishes were labeled and held at 80°-85° F. for 3 days. Although the larvae could easily consume the whole leaf within 24 hours, no more food was added. Larvae which were unable to move the length of the body, even upon stimulation by prodding, were considered dead. Per cent mortality was recorded for various concentration levels.
(§2) In Table 1 are presented insect and rat toxicity data (bait tests) on a comparative basis of the compounds described above. […] Rat toxicity is also more meaningfully compared on the basis of molar weight LD50 values. The relative efficacy of the parent compounds as compared to the previously known derivatives and as compared to the new compounds of this invention is also shown in Table 1. The ratio of efficacy as contact poisons (immersion/bait) of the compounds tested against Armyworm and House Fly is presented in Table 2 along with the results of the phytotoxicity tests of the compounds on bean, corn, tomato and cotton.

The subject of experiment [3] is house flies (Musca domestica, L.). The experiment in a line: Fly Bait Test. To be noted: for LC50: Musca domestica, 24 hours, read-out: Insect LD50, Housefly; for (b) relative efficacy of derivative vs parent compound, Housefly: formula of footnote b is drawing 8. The protocol: as §1
Four to six day old adult house flies (Musca domestica, L.), reared according to the specifications of the Chemical Specialities Manufacturing Association (Blue Book, McNair-Dorland Co., N.Y. 1954; pages 243-244, 261) under controlled conditions of 80°±5° F. and 50±5 per cent relative humidity, were the test insects. The flies were immobilized by anesthetizing with carbon dioxide and twenty five immobilized individuals, males and females, were transferred to a cage consisting of a standard food strainer about five inches in diameter which was inverted over a wrapping-paper covered surface. The test compounds were formulated by diluting the stock suspension with a 10 per cent (by weight) sugar solution to give a suspension containing 500 parts of test compound per million parts of final formulation, by weight. Ten milliliters of the test formulation were added to a souffle cup containing a 1-inch square of an absorbent cotton pad. This bait cup was introduced and centered on the blotting paper under the food strainer prior to admitting the anesthetized flies. The caged flies were allowed to feed on the bait for 24 hours, at a temperature of 80°±5° F. and the relative humidity of 50±5 per cent.
as §2

In experiment [4] the test system is houseflies (Musca domestica, L.). As to the kind of experiment: Fly Immersion Test. To be noted: for LC50: Musca domestica, immersion (contact), 24 hours, read-out: Imm LD50, Housefly; for contact vs stomach poison, house fly (in words): immersion vs bait; for (Imm/Bait), Housefly: ratio immersion/bait LD50. The protocol:
as §1
The test organisms used were 4 to 6 day old adult houseflies (Musca domestica, L.) reared under controlled conditions of 80° + 5° F. and 50 + 5 percent relative humidity. The adult flies were immobilized by anesthetizing with CO2. Twenty-five immobilized individuals (males and females) were then used for the test of each test compound.
Twenty-five randomly selected adult flies were thoroughly wetted in a formulated mixture of the test chemical (50 ml) by pouring the insects and formulation from one beaker to another six times. Excess liquid was removed by transferring the insects into a standard food strainer (5-inch diameter) which was then blotted with a paper towel. The treated flies were transferred to clean food strainer which was inverted over a paper cup containing a wad of cotton saturated with a 10 percent aqueous sugar solution provided as food for surviving insects. An equivalent amount of a water solution containing acetone and emulsifier in the same concentrations as the insecticidal mixture but without the candidate insecticide was applied to other flies in the same manner. These insects serve as controls for the experiment.
The surviving caged flies were allowed to feed on the sugar water for a period of 24 hours. Room temperature and humidity are 80° + 5° F. and 50 + 5 percent relative humidity, respectively. At the end of the holding period flies which show no sign of movement upon stimulation were considered dead.
as §2

In the case of `CNC(=O)ON=C(C)SC` [Compound 1, O-(methylcarbamoyl) S-methyl acetothiolhydroximate], the LC50 was determined as 4 µg/mL (≈ 24.7 µM) in experiment [1], 11 µg/mL (≈ 67.8 µM) in experiment [2], 4 µg/mL (≈ 24.7 µM) in experiment [3] and 32 µg/mL (≈ 197 µM) in experiment [4]. Besides, the “contact vs stomach poison, house fly (in words)” value (“contact vs stomach poison” for short) in experiment [4] was “significantly more toxic as stomach poisons than as contact poisons”. Besides, the “(Imm/Bait), Housefly” value in experiment [4] was 8.
For `CNC(=O)ON=C(C)SC(C)C` [Compound 2], the LC50 in experiment [1] came out at 25 µg/mL (≈ 131 µM); in experiment [2], 17 µg/mL (≈ 89.3 µM); in experiment [3], 11 µg/mL (≈ 57.8 µM); in experiment [4], 66 µg/mL (≈ 347 µM). For the same molecule, in experiment [4], the “contact vs stomach poison” value is “significantly more toxic as stomach poisons than as contact poisons”. The “(Imm/Bait), Housefly” value in experiment [4] is 6.
In the case of `CCSC(C)=NOC(=O)NC` [Compound 3], the LC50 amounted to 12 µg/mL (≈ 68.1 µM) in experiment [1], 11 µg/mL (≈ 62.4 µM) in experiment [2] and 3 µg/mL (≈ 17 µM) in experiment [3].
Regarding `CC(=NOC(=O)N(C)Sc1ccc(C(C)(C)C)cc1)SC(C)C` [Compound 9, O-[N-Methyl-N-[4-(t-Butylphenyl)sulfenyl]carbamoyl] S-Isopropyl Thiolacetohydroximate], the LC50 in experiment [1] was 9 µg/mL (≈ 25.4 µM). In addition, in experiment [2], the LC50 was 19 µg/mL (≈ 53.6 µM) and the “(b) relative efficacy of derivative vs parent compound, Armyworm” value (from here on “(b) relative efficacy … Armyworm”) is on record as 1.6. In experiment [3], the LC50 was found to be 50 µg/mL (≈ 141 µM) and the “(b) relative efficacy of derivative vs parent compound, Housefly” value (from here on “(b) relative efficacy … Housefly”) was found to be 0.43. In experiment [4], the LC50 turned out to be 10 µg/mL (≈ 28.2 µM) and the “(Imm/Bait), Housefly” value came to 0.2.
For `CSC(C)=NOC(=O)N(C)Sc1ccc(C)cc1` [Compound 6], the LC50 in experiment [1] worked out at 5 µg/mL (≈ 17.6 µM); in experiment [2] it was 6 µg/mL (≈ 21.1 µM); in experiment [3], 2 µg/mL (≈ 7.03 µM); in experiment [4], 14 µg/mL (≈ 49.2 µM). Further, the “(b) relative efficacy … Armyworm” value in experiment [2] was found to be 3.2. The “(Imm/Bait), Housefly” value in experiment [4] is reported as 7.
As to `CC(=NOC(=O)N(C)Sc1ccc(Cl)cc1)SC(C)C` [Compound 5], the LC50 in experiment [1] was determined as 3 µg/mL (≈ 9.01 µM). In experiment [2], the LC50 amounted to 30 µg/mL (≈ 90.1 µM) and the “(b) relative efficacy … Armyworm” value was determined as 1.0. Further, in experiment [3], the LC50 was 50 µg/mL (≈ 150 µM) and the “(b) relative efficacy … Housefly” value stood at 0.4. For the same molecule, in experiment [4], the LC50 turned out to be 25 µg/mL (≈ 75.1 µM) and the “(Imm/Bait), Housefly” value is recorded as 0.5.
Turning to `CSC(C)=NOC(=O)N(C)Sc1ccc(Cl)cc1` [Compound 4], the LC50 in experiment [1] amounted to 2 µg/mL (≈ 6.56 µM); in experiment [2] it was 10 µg/mL (≈ 32.8 µM); in experiment [3], 8 µg/mL (≈ 26.2 µM); in experiment [4], 24 µg/mL (≈ 78.7 µM). In addition, in experiment [2], the “(b) relative efficacy … Armyworm” value is on record as 2.1. Further, the “(Imm/Bait), Housefly” value in experiment [4] came out at 3.
With `CSC(C)=NOC(=O)N(C)Sc1ccc(C(C)(C)C)cc1` [Compound 8, O-[N-Methyl-N-[4-(t-butylphenyl)sulfenyl]carbamoyl] S-Methyl Acetothiolhydroximate], the LC50 in experiment [1] amounted to 2.5 µg/mL (≈ 7.66 µM). Also, in experiment [2], the LC50 was determined as 4 µg/mL (≈ 12.3 µM) and the “(b) relative efficacy … Armyworm” value was determined as 5.7. In addition, in experiment [3], the LC50 came to 17 µg/mL (≈ 52.1 µM) and the “(b) relative efficacy … Housefly” value is listed as 0.4. In experiment [4], the LC50 worked out at 14 µg/mL (≈ 42.9 µM); the “contact vs stomach poison” value is “outstanding contact poison”; the “(Imm/Bait), Housefly” value is reported as 0.8.
In the case of `CC(=NOC(=O)N(C)Sc1ccc(C)cc1)SC(C)C` [Compound 7], the LC50 in experiment [1] turned out to be 5 µg/mL (≈ 16 µM). In experiment [2], the LC50 is 12 µg/mL (≈ 38.4 µM) and the “(b) relative efficacy … Armyworm” value was 2.3. In experiment [3], the LC50 is 50 µg/mL (≈ 160 µM) and the “(b) relative efficacy … Housefly” value was determined as 0.38. In experiment [4], the LC50 came to 25 µg/mL (≈ 80 µM) and the “(Imm/Bait), Housefly” value is listed as 0.5.

Source of the values: patent publication US3998963A, “Tertiary butyl substituted carbamoyl oxime pesticides” (priority 1975, dated 1976).
